Patent publication US11167007B2, “FOXM1 modulators and uses thereof” (City of Hope, priority 2016, dated 2021)
Entries after “also recorded” stand apart in the source; their conditions may differ.

Experiments:
AR [1] = target: T1, AR (Homo sapiens, UniProt P10275); assay: FRET-based AR conformation change reporter (CFP-AR-YFP, CARY) in GT1-7 cells; assay type: cell-based, mouse; set-up: Full length AR with cyan fluorescent protein (CFP) or yellow fluorescent protein (YFP) fused to either end (CARY); expressed in transfected cells
T1 sequence (P10275 1-920): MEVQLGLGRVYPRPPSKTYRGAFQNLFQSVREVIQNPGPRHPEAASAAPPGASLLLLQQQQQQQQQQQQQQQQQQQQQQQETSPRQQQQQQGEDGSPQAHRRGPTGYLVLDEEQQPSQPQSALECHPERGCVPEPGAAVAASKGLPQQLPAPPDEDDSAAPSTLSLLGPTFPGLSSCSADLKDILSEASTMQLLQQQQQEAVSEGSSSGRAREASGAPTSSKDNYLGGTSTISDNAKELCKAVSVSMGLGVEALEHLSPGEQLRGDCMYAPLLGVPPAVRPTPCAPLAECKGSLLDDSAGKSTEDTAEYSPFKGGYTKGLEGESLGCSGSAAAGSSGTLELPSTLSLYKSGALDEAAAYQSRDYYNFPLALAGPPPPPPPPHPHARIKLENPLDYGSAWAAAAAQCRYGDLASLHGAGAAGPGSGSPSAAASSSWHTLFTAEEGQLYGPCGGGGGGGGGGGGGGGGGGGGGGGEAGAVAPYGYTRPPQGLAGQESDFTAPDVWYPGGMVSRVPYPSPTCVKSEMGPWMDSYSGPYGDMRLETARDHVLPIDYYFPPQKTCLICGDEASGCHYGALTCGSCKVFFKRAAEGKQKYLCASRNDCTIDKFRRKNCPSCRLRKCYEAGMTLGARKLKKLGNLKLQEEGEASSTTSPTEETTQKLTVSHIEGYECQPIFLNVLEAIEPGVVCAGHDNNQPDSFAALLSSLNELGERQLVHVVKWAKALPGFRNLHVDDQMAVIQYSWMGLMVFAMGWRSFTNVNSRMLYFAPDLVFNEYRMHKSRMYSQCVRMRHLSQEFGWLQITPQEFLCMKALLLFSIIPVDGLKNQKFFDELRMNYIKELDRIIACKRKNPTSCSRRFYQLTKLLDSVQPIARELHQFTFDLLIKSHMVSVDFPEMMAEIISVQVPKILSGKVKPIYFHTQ
Method: Creation of stable C-AR-Y reporter cell lines. Cell lines listed above were either transfected with a plasmid or a virus containing the CFP-AR-YFP construct preceding an IRES and hygromycin resistance gene and clonal stable cell lines selected. Qualification criteria for the transfected cell lines were described by Jones et al, ACS Chem Biol, 3(7):412-8 (2008).
Screen for AR-modulators. Screening was performed essentially as described by Jones et al, ACS Chem Biol, 3(7):412-8 (2008). Briefly, C-AR-Y reporter GTI-7 were transferred to 96 well plates and treated with library compounds for 24 hours. […] The compounds to be tested were from the NCI/DTP Open Chemical Repository's Approved Oncology Drugs Set II, Diversity Set II and Mechanistic Set. […] After 24 hours, medium was aspirated and FRET was measured as previously described using a monochromator-based fluorescence plate reader (M1000, Tecan, Inc.). Jones et al, ACS Chem Biol, 3(7):412-8 (2008). […]
In order to identify potential cell-type selective AR modulators, the FRET-based assay of AR conformation change was utilized. […] This produces an accurate and quantifiable read-out of AR activity. […] Candidate hits were then further evaluated by dose response. […] In addition to FRET, AR transcriptional activity was also assessed in several cell lines by transfecting cells with a luciferase reporter driven by the human PSA promoter. […]

AR [2] = assay: Immunohistochemistry of AR in spinal cord and muscle tissue; assay type: in vivo, rat; details: rats, 100 mg/kg per day, four weeks

Row | SMILES | inhibition of DHT-induced AR conformation change (AR [1]; dose response, GT1-7 cells, FIG. 1B) | AR inhibitor (antagonist) activity in words (AR [1]; neuronal GT1-7 cells, FRET or luciferase) | AR expression in striated muscle tissue nuclei (IHC) (AR [2]) | AR levels in spinal cord neurons (IHC) (AR [2])
1 | C=C(NC(=O)C(=C)NC(=O)c1csc(C2=N[C@@H]3c4csc(n4)[C@H]4NC(=O)c5csc(n5)[C@H]([C@](C)(O)[C@@H](C)O)NC(=O)[C@H]5CSC(=N5)/C(=C/C)NC(=O)[C@H]([C@@H](C)O)NC(=O)c5csc(n5)[C@]3(CC2)NC(=O)[C@H](C)NC(=O)C(=C)NC(=O)C(=C)NC(=O)[C@H](C(C)C)N[C@@H]2C=Cc3c([C@H](C)O)cc(nc3[C@H]2O)C(=O)O[C@@H]4C)n1)C(N)=O [NSC285116, siomycin A] | dose dependent inhibition | greatest potency; also recorded: demonstrated antagonist activity | – | –
2 | C=C(NC(=O)C(=C)NC(=O)c1csc(C2=N[C@@H]3c4csc(n4)[C@H]4NC(=O)c5csc(n5)[C@H]([C@](C)(O)[C@@H](C)O)NC(=O)[C@H]5CSC(=N5)/C(=C/C)NC(=O)[C@H]([C@@H](C)O)NC(=O)c5csc(n5)[C@]3(CC2)NC(=O)[C@H](C)NC(=O)C(=C)NC(=O)[C@H](C)NC(=O)[C@H]([C@@H](C)CC)N[C@@H]2C=Cc3c([C@H](C)O)cc(nc3[C@H]2O)C(=O)O[C@@H]4C)n1)C(N)=O [thiostrepton] | – | – | not affected | not affected
